The structures appear in SMILES notation. ≈ marks a conversion by molar mass, not a printed value. Calls of active or inactive are those of the source.

A word on the inhibition: it is the change of the read-out against control, counted positive when it falls. What is called IC50 is the midpoint of a concentration-inhibition curve. A word on the MBC: it is the lowest tested concentration that kills the bacteria rather than only halting them. By MIC is commonly meant the lowest concentration found to suppress growth. By half-life is commonly meant the time needed for the level to fall by half in the phase considered.

In one series the test system is Escherichia coli BL21. The experiment in a line: Inhibition of Escherichia coli MurA. Also noted: concentration or dose not given beside the values.
Series [1] in a line: Inhibition of Escherichia coli MurA at 25 uM. Also noted: species or system Escherichia coli BL21.
For series [2], the system named is Escherichia coli BL21 [C115D]. Kind of series: Inhibition of Escherichia coli MurA C115D mutant at 25 uM.
For series [3], the system named is Escherichia coli. Kind of series: Antimicrobial activity against Escherichia coli BL21 assessed as growth inhibition at 200 uM after 24 hrs. It counts as functional. The conditions noted are these: for inhibition at 200 µM: BL21, BL21, 24 h.
In series [4] the test system is Escherichia coli. The experiment in a line: Antimicrobial activity against Escherichia coli BL21 assessed as growth inhibition at 200 uM in presence of minimum medium. It counts as functional.
In series [5] the test system is Escherichia coli. Kind of series: Antimicrobial activity against Escherichia coli BL21 after 24 hrs. It counts as functional. The conditions noted are these: BL21, 24 h.
Series [6] is described as follows: Electrophilicity, glutathione reactivity of the compound assessed as half life. In kind it is physicochemical. The conditions noted are these: glutathione (reaction with glutathione).
Series [7] relates to Escherichia coli. Kind of series: Antimicrobial activity against Escherichia coli BL21 assessed as growth inhibition at 200 uM in presence of IPTG. In kind it is functional.
The test system of series [8] is Escherichia coli. The experiment in a line: Antimicrobial activity against Escherichia coli BL21 expressing MurA C115D mutant assessed as growth inhibition at 200 uM in presence of kanamycin. It counts as functional.
Series [9] deals with Escherichia coli. The experiment in a line: Antimicrobial activity against Escherichia coli BL21 expressing MurA C115D mutant assessed as growth inhibition at 200 uM after 20 hrs in presence of kanamycin and 0.5 mM IPTG. In kind it is functional.
Series [10] concerns Escherichia coli. Kind of series: Antimicrobial activity against Escherichia coli BL21 expressing MurA C115D mutant assessed as growth inhibition at 200 uM after 20 hrs in presence of kanamycin and 1 mM IPTG. It counts as functional.

`C=C1C(=O)OC(CO)C1O` (centres undefined): the inhibition in the series on Escherichia coli BL21 (concentration not given here) was 74%. Besides, in series [1], inhibition was half-maximal at 6.6 µM (IC50). Further, the inhibition result in series [2] is “inactive”. The inhibition at 200 µM stood at 26% in the series on Escherichia coli [3] and 102% with Escherichia coli [4].

In the case of `C=C(CCO)C(=O)O`, the inhibition result (with Escherichia coli BL21; in series [2]; with Escherichia coli [4]) was “inactive” throughout.

In the case of `C=C(C(=O)O)C(O)CO` (centres undefined), the inhibition with Escherichia coli BL21 (concentration not given here) is 87%. The same compound came in with a concentration for half-maximal inhibition (IC50) in [1] of 8.6 µM. The inhibition result in [2] was “inactive”. The inhibition at 200 µM with Escherichia coli [3] came to 18%; in the series with Escherichia coli [4], 100%. The compound also gave a minimum bactericidal concentration (MBC) with Escherichia coli [5] of 25 µM (≈ 3.3 µg/mL). In the series on Escherichia coli [5], the minimal inhibitory concentration (MIC) amounted to 1.56 µM (≈ 0.206 µg/mL). In addition, in [6], the half-life is less than 7 h. The outcome in the series with Escherichia coli [7], in the series with Escherichia coli [8], in the series on Escherichia coli [9] and with Escherichia coli [10] was inactive.

For the compound `C=C(CCO)C(=O)O[C@@H]1O[C@H](CO)[C@@H](O)[C@H](O)[C@H]1O`, the inhibition with Escherichia coli BL21 (concentration not given here) stood at 11%. Further, the inhibition entry (in series [2]; with Escherichia coli [3]; in the series with Escherichia coli [4]) was “inactive” throughout.

For `C=C1CC(CO)OC1=O` (centres undefined), the inhibition with Escherichia coli BL21 (concentration not given here) turned out to be 17%. Besides, the inhibition result (in series [2]; with Escherichia coli [3]) was “inactive” in each case. Further, the inhibition at 200 µM in the series on Escherichia coli [4] came to 47%.

As to `C=C(CP(=O)(O)O)C(=O)OC`, the inhibition result (in the series with Escherichia coli BL21; in [2]; in the series on Escherichia coli [3]; in the series on Escherichia coli [4]) was “inactive” each time.

Turning to `C=C(C(=O)OC)C(OC(C)=O)C(O)CO` (centres undefined), the inhibition in the series with Escherichia coli BL21 (concentration not given here) worked out at 79%; in series [2] it was 10%. This compound returned an IC50 in [1] of 4.5 µM. In addition, the inhibition at 200 µM is 30% with Escherichia coli [3] and 98% with Escherichia coli [4].

Turning to `C=C1C(=O)OCC1O` (racemic) [(+/-)-TULIPALINE B], the inhibition with Escherichia coli BL21 (concentration not given here) was determined as 97%. This compound also had a half-maximal inhibitory concentration (IC50) in series [1] of 2 µM. In addition, the inhibition result in [2] is “inactive”. Also, the inhibition at 200 µM in the series on Escherichia coli [3] came out at 62%; in the series with Escherichia coli [4] it was 93%. Moreover, the minimal bactericidal concentration (MBC) against Escherichia coli [5] came to 200 µM (≈ 22.8 µg/mL). Further, the MIC in the series with Escherichia coli [5] was determined as 12.5 µM (≈ 1.43 µg/mL). For the same compound, the result with Escherichia coli [7], in the series on Escherichia coli [8], in the series on Escherichia coli [9] and with Escherichia coli [10] was inactive.

Take `C=C(C(=O)OC)C(O)C1COC(C)(C)O1` (centres undefined): the inhibition entry (in the series on Escherichia coli BL21; in series [2]; with Escherichia coli [3]; in the series with Escherichia coli [4]) was “inactive” in each case.

As for `C=C(CBr)C(=O)OC` [METHYL BROMOMETHYL ACRYLATE], the inhibition in the series with Escherichia coli BL21 (concentration not given here) came out at 55%. Moreover, in series [2], the inhibition entry is “inactive”. For the same compound, the inhibition at 200 µM in the series on Escherichia coli [3] was found to be 20%; with Escherichia coli [4] it was 101%.

With `C=C1C(=O)O[C@@H]2/C=C(\CO)CC/C=C(\C)C[C@H](OC(=O)C(=C)[C@H](O)CO)[C@@H]12` [CNICIN], the inhibition with Escherichia coli BL21 (concentration not given here) amounted to 97%. The compound also yielded a half-inhibitory concentration (IC50) in series [1] of 16.7 µM. Moreover, in series [2], the inhibition entry was “inactive”. The inhibition at 200 µM in the series with Escherichia coli [3] was 19%; in the series on Escherichia coli [4] it was 92%. This compound also came in with a minimal bactericidal concentration (MBC) in the series on Escherichia coli [5] of 200 µM (≈ 75.7 µg/mL). This compound also displayed an MIC against Escherichia coli [5] of 25 µM (≈ 9.46 µg/mL). For the same compound, the result in the series with Escherichia coli [7], in the series with Escherichia coli [8], with Escherichia coli [9] and in the series on Escherichia coli [10] was inactive.

As for `C=C1CCOC1=O` [TULIPALINE A], the inhibition entry (with Escherichia coli BL21; in series [2]; with Escherichia coli [4]) was “inactive” in each case. Also, the inhibition at 200 µM in the series on Escherichia coli [3] was 5%.

Regarding `C=C1C(=O)OC(CBr)C1O` (centres undefined), the inhibition came to 85% with Escherichia coli BL21 (concentration not given here) and 18% in series [2]. Further, the concentration for half-maximal inhibition (IC50) in [1] came to 10.4 µM. Moreover, the values for the inhibition at 200 µM with Escherichia coli [3] and in the series on Escherichia coli [4] were 84% and 103%, respectively.

Regarding `C=C(C(=O)O[C@@H]1O[C@H](CO)[C@@H](O)[C@H](O)[C@H]1O)[C@@H](O)CO` [1-TULIPOSIDE B], the inhibition with Escherichia coli BL21 (concentration not given here) was 84%. In [1], this compound registered a 50% inhibitory concentration (IC50) of 5 µM. Also, the inhibition result in [2] was “inactive”. Moreover, in the series on Escherichia coli [3], the inhibition at 200 µM is 64%. In the series on Escherichia coli [5], this compound yielded a minimum bactericidal concentration (MBC) of 50 µM (≈ 14.7 µg/mL) and a minimal inhibitory concentration (MIC) of 6.25 µM (≈ 1.84 µg/mL). Further, in the series with Escherichia coli [4], the inhibition at 200 µM stood at 97%.

With `C=C(CO)C(=O)O`, the inhibition result (in the series on Escherichia coli BL21; in series [2]; in the series on Escherichia coli [3]; with Escherichia coli [4]) was “inactive” throughout. Moreover, the half-life in series [6] was greater than 60 h.

With `C=C(CP(=O)(O)O)C(=O)O`, the inhibition in the series on Escherichia coli BL21 (concentration not given here) amounted to 13%. Besides, the inhibition result (in series [2]; with Escherichia coli [3]; in the series with Escherichia coli [4]) was “inactive” throughout.

Consider `C=C(CO)C(=O)OC`, for which the inhibition result (in the series with Escherichia coli BL21; in [2]; in the series with Escherichia coli [3]; with Escherichia coli [4]) was “inactive” each time.

In the case of `C=C(C(=O)OC)C(O)C(O)CO` (centres undefined), the figures for the inhibition (in the series on Escherichia coli BL21 (concentration not given here); in series [2]) were 77% and 10%, respectively. In series [1], the midpoint of inhibition, the IC50, lay at 6.3 µM. Moreover, in the series with Escherichia coli [3], the inhibition at 200 µM came to 17%.

For `C[C@@H]1O[C@@H]1P(=O)(O)O` [FOSFOMYCIN], in the series on Escherichia coli BL21 (concentration not given here), the inhibition stood at 99%. The compound also gave an IC50 in series [1] of 0.1 µM. Also, the inhibition result in series [2] was “inactive”. For the same compound, the inhibition at 200 µM is 100% in the series on Escherichia coli [3] and 96% in the series on Escherichia coli [4]. In addition, the MBC in the series with Escherichia coli [5] came to 200 µM (≈ 27.6 µg/mL). The compound also returned a minimal inhibitory concentration (MIC) with Escherichia coli [5] of 50 µM (≈ 6.9 µg/mL). Moreover, in [6], the half-life was greater than 60 h. The result in the series on Escherichia coli [7] and in the series on Escherichia coli [8] was inactive. For the same compound, the outcome in the series with Escherichia coli [9] and in the series with Escherichia coli [10] was Active.

Consider `C=C(CP(=O)(OCC)OCC)C(=O)OC`, for which the inhibition with Escherichia coli BL21 (concentration not given here) came out at 20%. Moreover, the inhibition result (in [2]; in the series with Escherichia coli [3]; with Escherichia coli [4]) was “inactive” in each case.

As for `C=C1CC(COC(C)=O)OC1=O` (centres undefined), the inhibition result (in the series on Escherichia coli BL21; in [2]; in the series with Escherichia coli [3]) was “inactive” throughout. Besides, in the series with Escherichia coli [4], the inhibition at 200 µM amounted to 74%.

With `C=C(C(=O)O)C(O)C(O)CO` (centres undefined), the inhibition entry (in the series on Escherichia coli BL21; in series [2]; with Escherichia coli [3]; with Escherichia coli [4]) was “inactive” each time.

Source of the values: ChEMBL document CHEMBL1255527, “Structure-activity relationships of tulipalines, tuliposides, and related compounds as inhibitors of MurA” (Bioorg Med Chem Lett, 2010).
